The nature of test [1]: Displacement of [3H]PAF from rabbit PAF receptor by liquid scintillation counting. The arrangement: species or system Oryctolagus cuniculus.
The species named for test [2] is Oryctolagus cuniculus. Kind of test: Displacement of [3H]PAF from rabbit PAF receptor at 100 uM by liquid scintillation counting. For orientation: Loss of bound radioactivity is the signal in a displacement assay; it reports binding, not function.
The species entered for test [3] is Oryctolagus cuniculus. Kind of test: Displacement of [3H]PAF from rabbit PAF receptor at 50 uM by liquid scintillation counting.
The species entered for test [4] is Oryctolagus cuniculus. Put plainly: Displacement of [3H]PAF from rabbit PAF receptor at 25 uM by liquid scintillation counting.
The species entered for test [5] is Oryctolagus cuniculus. Put plainly: Displacement of [3H]PAF from rabbit PAF receptor at 12.5 uM by liquid scintillation counting.

Turning to `C[C@@H]1C(=O)O[C@H]2[C@H](O)[C@@]34[C@H]5C[C@@H](C(C)(C)C)[C@]36[C@@H](OC(=O)[C@@H]6O)O[C@@]4(C(=O)O5)[C@@]12O` [GINKOLIDE B], in test [1], the IC50 – broadly, the concentration that inhibits the measured activity by half – came to 19 µM.

With `COc1ccc(C(=O)[C@H]2CO[C@H](c3ccc(OC)c(OC)c3)[C@H]2CO)cc1OC` [MAGNONE A], the Activity came out at 75.2% in test [2], 56.7% in test [3], 41.6% in test [4] and 19.4% in test [5]. Besides, in test [1], the IC50 amounted to 38 µM.

On to `COc1ccc(C(=O)[C@H]2CO[C@H](c3cc(OC)c(OC)c(OC)c3)[C@H]2CO)cc1OC` [MAGNONE B], for which the Activity was determined as 81.7% in test [2], 64.3% in test [3], 42.9% in test [4] and 37.1% in test [5]. The concentration for half-maximal inhibition (IC50) in test [1] was 27 µM.

The values above are taken from ChEMBL document CHEMBL1150909, “Magnone A and B, novel anti-PAF tetrahydrofuran lignans from the flower buds of Magnolia fargesii” (J Nat Prod, 1998).
